According to ChEMBL document CHEMBL5113402, “Inhibition of cytochrome P450 monooxygenase-catalyzed oxylipin formation by flavonoids: Evaluation of structure-activity relationship towards CYP4F2-selective inhibitors” (Eur J Med Chem, 2022):
Values after ≈ are worked out from the molar mass of the structure shown.

Experiments:
[1] = molecular target: CYP450 (20-HETE formation) (Homo sapiens, UniProt P04798+P05177+P05181+P08684+P10632+P10635+P11509+P11712+P13584+P20813+P20815+P20853+P24462+P24903+P33260+P33261+P51589+P78329+P98187+Q02928+Q08477+Q16678+Q16696+Q5TCH4+Q6VVX0+Q7Z449+Q8TAV3+Q96SQ9+Q9HB55); experiment: Inhibition of CYP450 in human liver microsomes assessed as inhibition of 20-HETE formation at 10 uM in presence of arachidonic acid and NADPH by multi-enzyme assay based LC-MS/MS analysis relative to control; assay type: ADME, Microsome; settings: probe arachidonic acid
[2] = molecular target: CYP450 (EpETrE formation) (Homo sapiens, UniProt P04798+P05177+P05181+P08684+P10632+P10635+P11509+P11712+P13584+P20813+P20815+P20853+P24462+P24903+P33260+P33261+P51589+P78329+P98187+Q02928+Q08477+Q16678+Q16696+Q5TCH4+Q6VVX0+Q7Z449+Q8TAV3+Q96SQ9+Q9HB55); experiment: Inhibition of CYP450 in human liver microsomes assessed as inhibition of EpETrE formation at 10 uM in presence of arachidonic acid and NADPH by multi-enzyme assay based LC-MS/MS analysis relative to control; assay type: ADME, Microsome; settings: probe arachidonic acid
Homo sapiens = species: Homo sapiens; experiment: Selectivity index, log ratio of Inhibition of CYP450 in human liver microsomes assessed as inhibition of EpETrE formation in presence of arachidonic acid to Inhibition of CYP450 in human liver microsomes assessed as inhibition of 20-HETE formation in presence of arachidonic acid
Cytochrome P450 4F2 = molecular target: T1, Cytochrome P450 4F2 (Homo sapiens, UniProt P78329); experiment: Inhibition of recombinant CYP4F2 (unknown origin) incubated for 5 to 15 mins in presence of NADPH by LC-MS/MS analysis; assay type: ADME
T1 sequence (P78329 whole entry): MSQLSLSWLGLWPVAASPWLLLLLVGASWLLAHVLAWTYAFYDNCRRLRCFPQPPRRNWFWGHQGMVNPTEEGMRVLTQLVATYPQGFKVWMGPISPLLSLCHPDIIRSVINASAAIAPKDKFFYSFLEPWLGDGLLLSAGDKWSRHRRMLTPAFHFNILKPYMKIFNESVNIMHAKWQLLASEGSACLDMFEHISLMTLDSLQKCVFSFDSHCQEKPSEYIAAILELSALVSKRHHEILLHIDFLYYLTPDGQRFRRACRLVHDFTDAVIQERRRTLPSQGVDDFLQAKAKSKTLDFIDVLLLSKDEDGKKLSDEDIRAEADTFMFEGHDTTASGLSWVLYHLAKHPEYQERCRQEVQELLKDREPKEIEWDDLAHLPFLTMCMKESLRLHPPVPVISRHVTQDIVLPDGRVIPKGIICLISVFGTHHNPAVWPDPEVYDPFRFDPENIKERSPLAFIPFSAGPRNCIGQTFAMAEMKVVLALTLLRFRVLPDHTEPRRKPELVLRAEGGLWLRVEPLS

[3] = Solubility of the compound in phospahte-buffered saline buffer at pH 7.4 by shake flask method; assay type: physicochemical; settings: phosphate-buffered saline

## O=c1cc(-c2ccc(Br)cc2)oc2ccccc12
[1]
  inhibition at 10 µM: 35%
[2]
  inhibition at 10 µM: < 15%
Homo sapiens
  log(ratio): 0.4

## COc1cccc(-c2cc(=O)c3cc(OC)ccc3o2)c1 [6,3'-DIMETHOXYFLAVONE]
[1]
  inhibition at 10 µM: < 15%
[2]
  inhibition at 10 µM: < 15%
Homo sapiens
  log(ratio): -0.09

## CC(=O)OC[C@@]12CC[C@@]3(C)[C@H]4C(=CC[C@]3(C)[C@H]1[C@H](O)C[C@H]2C(C)C)[C@@]1(C)CCC(=O)C(C)(C)[C@@H]1C[C@@H]4O [RUBIARBONONE C]
Cytochrome P450 4F2
  IC50: 4.2 µM

## O=c1c(-c2ccc(O)cc2)coc2cc(O)cc(O)c12 [GENISTEIN]
[1]
  inhibition at 10 µM: 39%
[2]
  inhibition at 10 µM: < 15%
Homo sapiens
  log(ratio): 0.49

## COc1ccc2c(=O)cc(-c3ccccc3)oc2c1 [7-METHOXYFLAVONE]
[1]
  inhibition at 10 µM: < 15%
[2]
  inhibition at 10 µM: 50%

## COc1ccccc1-c1cc(=O)c2ccccc2o1
[1]
  inhibition at 10 µM: < 15%
[2]
  inhibition at 10 µM: 37%
Homo sapiens
  log(ratio): -0.4

## O=c1cc(-c2ccccc2)oc2cc(O)ccc12 [7-HYDROXYFLAVONE]
[1]
  inhibition at 10 µM: < 15%
[2]
  inhibition at 10 µM: 35%

## O=c1cc(-c2ccc(O)c(O)c2)oc2ccc(O)cc12
[1]
  inhibition at 10 µM: 26%
[2]
  inhibition at 10 µM: < 15%
Homo sapiens
  log(ratio): 0.29

## COc1ccc2oc(-c3ccccc3)cc(=O)c2c1 [6-METHOXYFLAVONE]
[1]
  inhibition at 10 µM: < 15%
[2]
  inhibition at 10 µM: 16%
Homo sapiens
  log(ratio): -0.05

## O=c1cc(-c2ccc(Br)cc2)oc2ccc(O)cc12
[1]
  inhibition at 10 µM: < 15%
[2]
  inhibition at 10 µM: < 15%
Homo sapiens
  log(ratio): 0

## COc1ccc(-c2coc3ccccc3c2=O)cc1OC
[1]
  inhibition at 10 µM: 27%
[2]
  inhibition at 10 µM: < 15%
Homo sapiens
  log(ratio): 0.22

## COc1ccc2oc(-c3ccc(Br)cc3)cc(=O)c2c1
[1]
  inhibition at 10 µM: 17%
[2]
  inhibition at 10 µM: < 15%
Homo sapiens
  log(ratio): 0.16

## O=c1cc(-c2ccccc2)oc2ccc(O)cc12 [6-HYDROXYFLAVONE]
[1]
  inhibition at 10 µM: < 15%
[2]
  inhibition at 10 µM: 15%
Homo sapiens
  log(ratio): -0.01

## COc1cc2oc(-c3ccccc3)cc(=O)c2c(OC)c1OC [BAICALEIN TRIMETHYL ETHER]
[1]
  inhibition at 10 µM: < 15%
[2]
  inhibition at 10 µM: < 15%
Homo sapiens
  log(ratio): -0.09

## COc1ccccc1-c1coc2ccccc2c1=O
[1]
  inhibition at 10 µM: < 15%
[2]
  inhibition at 10 µM: < 15%
Homo sapiens
  log(ratio): -0.15

## COc1ccc2oc(-c3ccc(OC)c(OC)c3)cc(=O)c2c1
[1]
  inhibition at 10 µM: < 15%
[2]
  inhibition at 10 µM: < 15%
Homo sapiens
  log(ratio): 0.07

## O=c1cc(-c2ccccc2)oc2cc(O)c(O)c(O)c12 [BAICALEIN]
[1]
  inhibition at 10 µM: < 15%
[2]
  inhibition at 10 µM: 32%
Homo sapiens
  log(ratio): -0.36

## O=c1cc(-c2ccccc2O)oc2ccccc12
[1]
  inhibition at 10 µM: < 15%
[2]
  inhibition at 10 µM: 24%
Homo sapiens
  log(ratio): -0.29

## COc1ccc(-c2coc3cc(O)cc(O)c3c2=O)cc1 [BIOCHANIN]
[1]
  inhibition at 10 µM: 25%
[2]
  inhibition at 10 µM: < 15%
Homo sapiens
  log(ratio): 0.25

## Cc1ccc(-c2cc(=O)c3ccccc3o2)cc1
[1]
  inhibition at 10 µM: 32%
[2]
  inhibition at 10 µM: 26%
Homo sapiens
  log(ratio): 0.07

## O=c1cc(-c2ccc(O)cc2)oc2ccccc12
[1]
  inhibition at 10 µM: < 15%
[2]
  inhibition at 10 µM: < 15%
Homo sapiens
  log(ratio): 0.05

## COc1cccc(-c2coc3ccccc3c2=O)c1
[1]
  inhibition at 10 µM: < 15%
[2]
  inhibition at 10 µM: < 15%
Homo sapiens
  log(ratio): 0

## O=c1c(-c2ccccc2)coc2ccccc12 [ISOFLAVONE]
[1]
  inhibition at 10 µM: < 15%
[2]
  inhibition at 10 µM: < 15%
Homo sapiens
  log(ratio): 0.19

## COc1ccc(-c2cc(=O)c3cc(OC)ccc3o2)cc1 [6,4'-DIMETHOXYFLAVONE]
[1]
  inhibition at 10 µM: < 15%
[2]
  inhibition at 10 µM: < 15%
Homo sapiens
  log(ratio): 0

## COc1ccc2oc(-c3ccc(C(F)(F)F)cc3)cc(=O)c2c1
[1]
  inhibition at 10 µM: 55%
[2]
  inhibition at 10 µM: < 15%
[3]
  solubility thermodynamic: 1 µM (≈ 0.32 µg/mL)
Homo sapiens
  log(ratio): 0.59

## O=c1cc(-c2ccc(O)c(O)c2)oc2ccccc12
[1]
  inhibition at 10 µM: 32%
[2]
  inhibition at 10 µM: 19%
Homo sapiens
  log(ratio): 0.17

## O=c1cc(-c2ccccc2)oc2ccccc12 [FLAVONE]
[1]
  inhibition at 10 µM: < 15%
[2]
  inhibition at 10 µM: < 15%
Homo sapiens
  log(ratio): 0

## COc1ccc(-c2cc(=O)c3ccccc3o2)cc1 [4'-METHOXYFLAVONE]
[1]
  inhibition at 10 µM: 27%
[2]
  inhibition at 10 µM: 20%
Homo sapiens
  log(ratio): 0.13

## COc1ccc(-c2coc3ccccc3c2=O)cc1
[1]
  inhibition at 10 µM: < 15%
[2]
  inhibition at 10 µM: < 15%
Homo sapiens
  log(ratio): 0.18

## COc1ccc(-c2cc(=O)c3ccccc3o2)cc1OC [3',4'-DIMETHOXYFLAVONE]
[1]
  inhibition at 10 µM: 18%
[2]
  inhibition at 10 µM: < 15%
Homo sapiens
  log(ratio): 0.08
